Reference: patent US7820714B2, “Siglec inhibitors” (priority 2001, dated 2010)
pIC50: −log10 of the molar value.

Experiments:
Siglec-2 (murine CD22) = target: T1, Siglec-2 (murine CD22) (Mus musculus, UniProt P35329); assay: Hapten inhibition assay, Siglec-2 (murine CD22); format: binding; details: for Siglec-2 (murine CD22) rIP: quotient IC50 reference compound / IC50 compound; for pIC50: unit inferred
T1 sequence (P35329 22-148 limits assumed): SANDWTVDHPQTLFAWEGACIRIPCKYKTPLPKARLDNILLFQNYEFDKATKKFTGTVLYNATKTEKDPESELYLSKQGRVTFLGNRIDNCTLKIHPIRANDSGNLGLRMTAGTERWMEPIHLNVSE
Experimental: (§1) Preferably, the inhibition can be determined by a Hapten inhibition test. […] After overnight incubation at 4° C. the unbound complexes are removed by washing the cells and the bound radioactivity is determined. From the data obtained in this way, the concentrations are found which lead to 50% inhibition of the binding (IC50 values) (5, 6). Specially preferred during the Hapten inhibition test was 10 μl of the complex solution with an activity of 10^3 Bq ^125I mixed with the same volume of a solution of the substance to be investigated (concentrated three times) and incubated at 4° C. for one hour. Then followed the addition of 10 μl of a suspension of target cells, preferably 0.25 to 0.5% of human erythrocytes and incubation overnight at 4° C. The unbound radioactivity is removed by washing the cells five times with 200 μl of washing buffer, preferably phosphate-buffered saline with 0.1% (W/V) bovine serum albumin, and the cell-bound activity is determined with a γ-counter. […] The inhibition is determined in that the value without inhibitor is set to 0% and that with the sialidase-treated cells is set equal to 100%.
(§2) The IC50 value is the siglec inhibitor concentration which leads to 50% inhibition in the binding in the Hapten inhibition assay.

Siglec-4a (MAG) = target: T2, Siglec-4a (MAG) (UniProt P20917); assay: Hapten inhibition assay, Siglec-4a (MAG); details: for Siglec-4a (MAG) rIP: quotient IC50 reference compound / IC50 compound; for pIC50: read-out: Siglec-4a (MAG) IC50, unit inferred; for binds stronger to siglec-4a than the reference compound: relative to 2-alpha-methyl-5-N-acetyl-neuraminic acid
T2 sequence (P20917 1-627): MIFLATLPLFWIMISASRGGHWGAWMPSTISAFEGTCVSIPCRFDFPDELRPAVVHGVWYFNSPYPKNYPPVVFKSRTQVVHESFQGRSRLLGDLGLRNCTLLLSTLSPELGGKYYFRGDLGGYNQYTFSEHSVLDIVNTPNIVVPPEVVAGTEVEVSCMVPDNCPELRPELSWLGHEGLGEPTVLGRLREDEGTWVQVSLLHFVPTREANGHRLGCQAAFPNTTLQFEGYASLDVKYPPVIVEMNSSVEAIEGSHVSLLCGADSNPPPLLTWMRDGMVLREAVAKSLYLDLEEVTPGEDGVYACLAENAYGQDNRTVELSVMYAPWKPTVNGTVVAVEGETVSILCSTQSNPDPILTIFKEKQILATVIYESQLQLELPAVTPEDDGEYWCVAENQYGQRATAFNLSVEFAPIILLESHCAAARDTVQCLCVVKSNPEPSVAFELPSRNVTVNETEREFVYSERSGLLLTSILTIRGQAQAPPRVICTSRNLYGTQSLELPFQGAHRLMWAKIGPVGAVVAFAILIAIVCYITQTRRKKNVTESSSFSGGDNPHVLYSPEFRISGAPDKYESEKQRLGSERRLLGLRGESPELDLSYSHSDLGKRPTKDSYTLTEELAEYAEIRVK
Experimental: Preferably, the inhibition can be determined by a Hapten inhibition test. […] After overnight incubation at 4° C. the unbound complexes are removed by washing the cells and the bound radioactivity is determined. […] Then followed the addition of 10 μl of a suspension of target cells, preferably 0.25 to 0.5% of human erythrocytes and incubation overnight at 4° C. The unbound radioactivity is removed by washing the cells five times with 200 μl of washing buffer, preferably phosphate-buffered saline with 0.1% (W/V) bovine serum albumin, and the cell-bound activity is determined with a γ-counter. […] The inhibition is determined in that the value without inhibitor is set to 0% and that with the sialidase-treated cells is set equal to 100%.

Siglec-2 (human CD22) = target: T3, Siglec-2 (human CD22) (Homo sapiens, UniProt P20273); assay: Hapten inhibition assay, Siglec-2 (human CD22); format: binding; details: for Siglec-2 (human CD22) rIP: quotient IC50 reference compound / IC50 compound; for pIC50: unit inferred
T3 sequence (P20273 20-138 limits assumed): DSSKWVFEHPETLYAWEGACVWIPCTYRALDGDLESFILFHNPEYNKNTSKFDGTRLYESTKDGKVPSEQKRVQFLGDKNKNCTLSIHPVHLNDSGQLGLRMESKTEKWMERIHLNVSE
Experimental: as §1, §2

Siglec-1 (sialoadhesin) = Siglec-1 (sialoadhesin) (Mus musculus, UniProt Q62230); assay: Hapten inhibition assay, Siglec-1 (sialoadhesin); format: binding; details: for Siglec-1 (sialoadhesin) percentage in parentheses below the IC50 bound: at the concentration of the IC50 bound, meaning not defined in the patent; for IC50: bounds given in mM; for Siglec-1 (sialoadhesin) rIP: quotient IC50 reference compound / IC50 compound; for pIC50: unit inferred
Sequence of Siglec-1 (sialoadhesin) (Q62230 20-136 limits assumed): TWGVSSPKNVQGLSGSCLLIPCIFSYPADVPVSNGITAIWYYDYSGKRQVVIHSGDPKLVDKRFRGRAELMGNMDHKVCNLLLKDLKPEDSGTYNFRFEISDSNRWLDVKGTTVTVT
Experimental: as §1, §2

Siglec-2 (murine CD22) rIP (Siglec-2 (murine CD22))	pIC50 (Siglec-2 (murine CD22))	Siglec-4a (MAG) rIP (Siglec-4a (MAG))	pIC50 (Siglec-4a (MAG))	Siglec-2 (human CD22) rIP (Siglec-2 (human CD22))	pIC50 (Siglec-2 (human CD22))	Siglec-1 (sialoadhesin) percentage in parentheses below the IC50 bound (Siglec-1 (sialoadhesin))	IC50 (Siglec-1 (sialoadhesin)) [mM]	Siglec-1 (sialoadhesin) rIP (Siglec-1 (sialoadhesin))	pIC50 (Siglec-1 (sialoadhesin))	Siglec-2 (murine CD22) percentage in parentheses below the IC50 bound (Siglec-2 (murine CD22); at the concentration of the IC50 bound, meaning not defined in the patent)	IC50 (Siglec-2 (murine CD22); bounds given in mM) [mM]	binds stronger to siglec-4a than the reference compound (Siglec-4a (MAG))	Structure (SMILES)
	2.83	166	4.55	19	4.14			1.7	3.28				CO[C@]1(C(=O)O)C[C@H](O)[C@@H](NC(C)=O)[C@H]([C@H](O)[C@H](O)CNC(=O)c2cc(O)cc(O)c2)O1 [Methyl-α-9-N-(3,5-dihydroxybenzoyl)-amino-9-desoxy-Neu5Ac]
		54	4.06		4.39	(100%)	> 2.5	<<0.2		(100%)	> 10		COC1(C(=O)O)CC(O)C(NC(C)=O)C(C(O)C(O)CNC(=O)c2ccc3ccccc3n2)O1 (stereo not drawn) [Methyl-α-9-N-(chinaldine-2-carbonyl)-amino-9-desoxy-Neu5Ac]
	3.99	31	3.82		4.46			0.2	2.36				CO[C@]1(C(=O)O)C[C@H](O)[C@@H](NC(C)=O)[C@H]([C@H](O)[C@H](O)CNC(=O)C(c2ccccc2)c2ccccc2)O1 [Methyl-α-9-N-(diphenylacetyl)-amino-9-desoxy-Neu5Ac]
64	4.04	84	4.25	27	4.43			0.3	2.52				CO[C@]1(C(=O)O)C[C@H](O)[C@@H](NC(C)=O)[C@H]([C@H](O)[C@H](O)CNC(=O)c2cccc3ccccc23)O1 [Methyl-α-9-N-(naphthyl-1-carbonyl)-amino-9-desoxy-Neu5Ac]
83	4.15	13	3.44	131	5.10			0.5	2.76				CO[C@]1(C(=O)O)C[C@H](O)[C@@H](NC(C)=O)[C@H]([C@H](O)[C@H](O)CNC(=O)Cc2ccc3ccccc3c2)O1 [Methyl-α-9-N-(naphthyl-2-acetyl)-amino-9-desoxy-Neu5Ac]
14	3.47	170	4.60	2.3	3.35			0.5					CO[C@]1(C(=O)O)C[C@H](O)[C@@H](NC(C)=O)[C@H]([C@H](O)[C@H](O)CNC(=O)c2cccnc2)O1 [Methyl-α-9-N-(pyridine-3-carbonyl)-amino-9-desoxy-Neu5Ac]
1.0	2.33	1.0	2.33	1.0	2.86			1.0	3.05				CO[C@]1(C(=O)O)C[C@H](O)[C@@H](NC(C)=O)[C@H]([C@H](O)[C@H](O)CO)O1 [Methyl-α-Neu5Ac, reference compound]

Further lines, the molecule ahead of its results:

Structure (SMILES)	Siglec-2 (murine CD22) rIP (Siglec-2 (murine CD22))	pIC50 (Siglec-2 (murine CD22))	Siglec-4a (MAG) rIP (Siglec-4a (MAG))	pIC50 (Siglec-4a (MAG))	Siglec-2 (human CD22) rIP (Siglec-2 (human CD22))	pIC50 (Siglec-2 (human CD22))	Siglec-1 (sialoadhesin) percentage in parentheses below the IC50 bound (Siglec-1 (sialoadhesin))	IC50 (Siglec-1 (sialoadhesin)) [mM]	Siglec-1 (sialoadhesin) rIP (Siglec-1 (sialoadhesin))	pIC50 (Siglec-1 (sialoadhesin))	Siglec-2 (murine CD22) percentage in parentheses below the IC50 bound (Siglec-2 (murine CD22); at the concentration of the IC50 bound, meaning not defined in the patent)	IC50 (Siglec-2 (murine CD22); bounds given in mM) [mM]	binds stronger to siglec-4a than the reference compound (Siglec-4a (MAG))
CCOc1c(N[C@H]2[C@H]([C@H](O)[C@H](O)CO)O[C@@](OC)(C(=O)O)C[C@@H]2O)c(=O)c1=O [Methyl-α-5-N-(etoxycylcobutendion)-neuraminic acid]	1.5	2.47	0.5	2.37	2.3	3.03	(92%)	> 5	<<0.15				
CO[C@]1(C(=O)O)C[C@H](O)[C@@H](NC(C)=O)[C@H]([C@H](O)[C@H](O)CNC(=O)c2ccc([N+](=O)[O-])cc2[N+](=O)[O-])O1 [Methyl-α-9-N-(2,4-dinitrobenzoyl)-amino-9-desoxy-Neu5Ac]	7.9	3.23	18	3.69	7.7	3.54			0.3	3.13			
COc1ccc(C(=O)NC[C@@H](O)[C@@H](O)[C@@H]2O[C@@](OC)(C(=O)O)C[C@H](O)[C@H]2NC(C)=O)cc1 [Methyl-α-9-N-(4-methoxybenzoyl)-amino-9-desoxy-Neu5Ac]	7.4	3.18	393	4.92	19	3.92			8.4	4.38			
CO[C@]1(C(=O)O)C[C@H](O)[C@@H](NC(C)=O)[C@H]([C@H](O)[C@H](O)CNC(=O)c2ccc(NC(C)=O)cc2)O1 [Methyl-α-9-N-(acetamidobenzoyl)-amino-9-desoxy-Neu5Ac]		2.99	77	4.21	2.4	3.24			3.0	3.53			
COC1(C(=O)O)CC(O)C(NC(C)=O)C(C(O)C(O)CNC(=O)c2cccc3cc4ccccc4cc23)O1 (stereo not drawn) [Methyl-α-9-N-(anthracen-5-carbonyl)-amino-9-desoxy-Neu5Ac]	7.4	3.19	28	3.79	4.9	3.47			0.5	3.12			
COC1(C(=O)O)CC(O)C(NC(C)=O)C(C(O)C(O)CNC(=O)c2ccc3ccccc3c2)O1 (stereo not drawn) [Methyl-α-9-N-(naphthyl-2-carbonyl)-amino-9-desoxy-Neu5Ac]	18	3.57	236	4.70	167	5.22			12	4.11			approx. 236 times
COC1(C(=O)O)CC(O)C(NC(C)=O)C(C(O)C(O)CNC(=O)c2c(F)c(F)c(F)c(F)c2F)O1 (stereo not drawn) [Methyl-α-9-N-(pentafluorbenzoyl)-amino-9-desoxy-Neu5Ac]	2.0	2.60	42	3.97	3.3	3.44			0.3	2.15			
COC1(C(=O)O)CC(O)C(NC(C)=O)C(C(O)C(O)CNC(=O)c2cccc(Oc3ccccc3)c2)O1 (stereo not drawn) [Methyl-α-9-N-(phenoxy-3-benzoyl)-amino-9-desoxy-Neu5Ac]	6.7	3.05			111	5.00			1.5	3.27			
CO[C@]1(C(=O)O)C[C@H](O)[C@@H](NC(C)=O)[C@H]([C@H](O)[C@H](O)CNC(C)=O)O1 [Methyl-α-9-N-acetyl-amino-9-desoxy-Neu5Ac]	2.7	2.76	3.7	2.67	0.6	2.74			0.2	2.42			
CO[C@]1(C(=O)O)C[C@H](O)[C@@H](NC(C)=O)[C@H]([C@H](O)[C@H](O)CNC(=O)c2ccccc2)O1 [Methyl-α-9-N-benzoyl-amino-9-desoxy-Neu5Ac]	3.7	2.96	704	5.15	5.7	3.54			1.8	3.27			approximately 704 times
CO[C@]1(C(=O)O)C[C@H](O)[C@@H](NC(C)=O)[C@H]([C@H](O)[C@H](O)CNC(=O)C2CCCCC2)O1 [Methyl-α-9-N-cyclohexanoyl-amino-9-desoxy-Neu5Ac]	6.9	3.12	50	3.96	4.1	3.42	(93%)	> 1	0.2				
